Data reported in patent US20220000832A1 (priority 2019, published 2022).
Like-named read-outs stand apart in the source and are kept apart here.

Columns and labels:
[1] = test system: Melb-a (melanoblast) cells
[2] = test system: Melb-a (melanoblast) cells; test: cells; type: cell-based
[3] = test system: melb-a cells (melanoblasts); test: cells; type: cell-based; conditions: for fold induction at 10 µM / fold induction at 1 µM / fold induction at 100 µM: read-out: Increase of cell migration rate compared to negative control
[4] = 96 h, read-out: Melanin content compared to negative control (%)
[5] = 24 h, read-out: Cell migration rate (%)

SMILES | activity at 10 µM [2, 4] [%] | activity at 10 µM [3, 5] [%] | fold induction at 10 µM ([3]; 24 h) | other results
O=Cc1ccc(C=O)o1 [Example 17, Furan-2,5-dicarbaldehyde] | 95.3 ± 6.49 | 118 ± 21.9 |  | Cell viability (in words) [1]: very low; Cell viability (%) ([1]; mouse): 23.08 ± 5.95%; Cell viability (in words) ([1]; mouse): low compared to when the compound of Example 1 was treated; Melanin content compared to negative control (in words) ([2]; 10 μM): lowered
CCCNC(=O)c1ccc(C=O)o1 [Example 5, 5-formyl-N-propylfuran-2-carboxamide] | 94.3 ± 1.51 | 229 ± 11.6 | > 2 | 
OCc1ccc(CO)o1 [Example 12, Furan-2,5-diyldimethanol] | 139 ± 1.6 | 173 ± 29.9 |  | 
O=Cc1ccc(COCc2ccccc2)o1 [Example 2, 5-((benzyloxy)methyl)furan-2-carbaldehyde] | 82.4 ± 4.25 | 114 ± 18.9 |  | 
CC(O)c1ccc(CO)o1 (centres unmarked) [Example 16, 1-(5-(hydroxymethyl)furan-2-yl)ethanol] | 139 ± 19.9 | 215 ± 13.9 | > 2 | 
CCOC(=O)c1ccc(CO)o1 [Example 11, ethyl 5-(hydroxymethyl)furan-2-carboxylate] | 104 ± 4.63 | 112 ± 13.9 |  | 
CC(O)c1ccc(COC2CCCCO2)o1 (centres unmarked) [Example 15, 1-(5-(((tetrahydro-2H-pyran-2-yl)oxy)methyl)furan-2-yl)ethanol] | 144 ± 4.59 | 197 ± 33.8 |  | 
O=C(O)c1ccc(CO)o1 [Example 14, 5-(hydroxymethyl)furan-2-carboxylic Acid] | 158.4 ± 0.75 | 264 ± 7.81 | > 2 | 
CCC(O)c1ccc(C=O)o1 (centres unmarked) [Example 20, 5-(1-hydroxypropyl)furan-2-carbaldehyde] | 112 ± 1.5 | 261 ± 16.8 | > 2 | 
COC(=O)c1ccc(C=O)o1 [Example 10, methyl 5-formylfuran-2-carboxylate] |  |  | > 2 | Cell viability ([1]; mouse): ≥ 99%; Melanin content compared to negative control (in words) [2]: gradually increased; Melanin content (in words) ([2]; 100 μM): somewhat reduced; activity at 1 µM [2, 4]: 136 ± 5.19%; activity at 100 µM [2, 4]: 159 ± 1.77%; Cell migration rate compared to negative control (in words) [3]: gradually increased; fold induction at 1 µM ([3]; 24 h): ~1.9; fold induction at 100 µM ([3]; 24 h, 100 μM): ~2.7; activity at 1 µM [3, 5]: 189 ± 11.4%; activity at 100 µM [3, 5]: 283 ± 7.03%
COC(=O)c1ccc(C(OC)OC)o1 [Example 9, methyl 5-(dimethoxymethyl)furan-2-carboxylate] | 131 ± 2.03 |  | > 2 | Cell viability ([1]; mouse): ≥ 99%; Melanin content compared to negative control (in words) [2]: gradually increased; activity at 1 µM [2, 4]: 128 ± 7.18%; activity at 100 µM [2, 4]: 142 ± 5.43%; Cell migration rate compared to negative control (in words) [3]: gradually increased; fold induction at 1 µM ([3]; 24 h): ~1.9; fold induction at 100 µM ([3]; 24 h, 100 μM): ~3; activity at 1 µM [3, 5]: 198 ± 6.81%; activity at 100 µM [3, 5]: 303 ± 18.7%
CC(=O)OC(C)c1ccc(C=O)o1 (centres unmarked) [Example 19, 1-(5-formylfuran-2-yl)ethyl Acetate] | 116 ± 3.15 | 230 ± 25.1 | > 2 | 
C=CCOCc1ccc(C=O)o1 [Example 3, 5-((allyloxy)methyl)furan-2-carbaldehyde] | 95.2 ± 7.54 | 134 ± 11.7 |  | 
COC(=O)c1ccc(CO)o1 [Example 13, methyl 5-(hydroxymethyl)furan-2-carboxylate] | 145 ± 5.9 | 161 ± 29.4 |  | 
O=Cc1ccc(C(=O)NCc2ccccc2)o1 [Example 4, N-benzyl-5-formylfuran-2-carboxamide] | 97.4 ± 4.47 | 115 ± 19.5 |  | 
CNC(=O)c1ccc(C=O)o1 [Example 6, 5-formyl-N-methylfuran-2-carboxamide] | 95.9 ± 2.87 | 139 ± 17.5 |  | 
O=Cc1ccc(C(=O)OCc2ccccc2)o1 [Example 7, Benzyl 5-formylfuran-2-carboxylate] | 134 ± 2.32 | 202 ± 61.9 | > 2 | 
C=CCOC(=O)c1ccc(C=O)o1 [Example 8, allyl 5-formylfuran-2-carboxylate] | 122 ± 5.15 | 178 ± 19.8 |  | 
O=Cc1ccc(CO)o1 [Example 1, 5-(hydroxymethyl)furan-2-carbaldehyde] |  |  | 2.7 | Cell viability ([1]; mouse): ≥ 105%; Melanin content compared to negative control (in words) [2]: gradually increased; Melanin content (in words) ([2]; 1000 μM): rather reduced; activity at 1000 µM [2, 4]: 149 ± 17.4%; Cell migration rate (in words) [3]: decreased; Cell migration rate compared to negative control (in words) [3]: gradually increased; fold induction at 1 µM ([3]; 24 h): 2; fold induction at 100 µM ([3]; 24 h, 100 μM): ~4; activity at 25 µM [3, 5]: 263 ± 12.7%; activity at 50 µM [3, 5]: 309 ± 15.5%; activity at 1000 µM [3, 5]: 253 ± 13.4%
CC(O)c1ccc(C=O)o1 (centres unmarked) [Example 18, 5-(1-hydroxyethyl)furan-2-carbaldehyde] |  |  | > 2 | Melanin content compared to negative control (in words) [2]: slightly increased; Melanin content (in words) ([2]; 100 μM): decreased; activity at 1 µM [2, 4]: 125 ± 3.04%; activity at 100 µM [2, 4]: 128 ± 4.15%; Cell migration rate compared to negative control (in words) [3]: gradually increased; Cell migration rate (in words) ([3]; 100 μM): rather decreased; fold induction at 1 µM ([3]; 24 h): ~1.7; activity at 1 µM [3, 5]: 177 ± 25.5%; activity at 100 µM [3, 5]: 167 ± 20.3%
CCC(OC(C)=O)c1ccc(C=O)o1 (centres unmarked) [Example 21, 1-(5-formylfuran-2-yl)propyl Acetate] | 115 ± 2.96 | 260 ± 16.5 | > 2 | 
